Results reported in patent publication US11377451B2, “Compositions and methods for treating cancer” (The Regents of the University of California, priority 2019, dated 2022).
Where two headings read alike, the source gives them in different places.

Experiments:
gliomas = conditions: cited from earlier work
[1] = test system: patient-derived GBM gliomaspheres; experiment: Annexin V apoptosis assay; type: cell-based, human; conditions: 72 hours of erlotinib exposure, 1 μM
Method: Cells were collected and analyzed for Annexin V and PI staining according to manufacturer's protocol (BD Biosciences). Briefly, cells were plated at 5×10^4 cells/ml and treated with appropriate drugs. Following indicated time points, cells were collected, trypsinized, washed with PBS, and stained with Annexin V and PI for 15 minutes. Samples were then analyzed using the BD LSRII flow cytometer.
Annexin V staining was measured following 72 hrs of treatment. Using the Chalice software, the response of the combination was compared to its single agents. The combinatorial effects were calculated using the synergy score.

[2] = test system: BIM, PUMA; PI3K-AKT-mTOR signaling; experiment: Immunoblotting; type: cell-based, human; conditions: only in the metabolic responder cultures, acute erlotinib treatment
Method: Cells were collected and lysed in RIPA buffer (Boston BioProducts) containing Halt Protease and Phosphatase Inhibitor (Thermo Fischer Scientific). Lysates were centrifuged at 14,000×g for 15 min at 4° C. […] Membranes were developed using the SuperSignal system (Thermo Fischer Scientific).

[3] = Pharmacokinetic / brain penetration studies in mice; type: in vivo
Method: Pharmacokinetic studies were performed on male CD-1 mice aged 8-10 weeks. Mice were dosed as indicated in duplicates. At the time points, whole blood was obtained by retro-orbital bleeding and brain tissue was harvested. Blood samples were centrifuged to obtain plasma and brain tissue was washed and homogenized. Samples were extracted with acetonitrile and supernatant was dried using a speed-vac. Dried samples were solubilized in 50:50:0.1 acetonitrile:water:formic acid and quantified on an Agilent 6400 series Triple Quadrupole LC/MS.
Disclosed in table 5 Brain to plasma percentages and unbound ratios of drugs in brain to plasma of indicated drugs in non-tumor bearing mice

[4] = test system: patient-derived GBM gliomaspheres; experiment: 18F-FDG uptake assay; type: cell-based, human; conditions: metabolic responder GBMs, erlotinib 1 μM, 4 hours
Method: Cells were plated at 5×10^4 cells/ml and treated with designated drugs for indicated time points. Following appropriate treatment, cells were collected and resuspended in glucose-free DMEM/F12 (USBiological) containing ^18F-FDG (radioactivity 1 μCi/mL). Cells were incubated at 37° C. for 1 hr and then washed three times with ice cold PBS. Radioactivity of each sample was then measured using a gamma counter.

[5] = cited from earlier work
[6] = test system: GBM39 and HK393 intracranial xenografts; experiment: Intracranial delayed 18F-FDG PET/CT mouse imaging; type: in vivo, mice
Method: Following 1 hr unconscious uptake, mice were taken off anesthesia but kept warm for another 5 hr of uptake. 6 hr after the initial administration of ^18F-FDG, mice were imaged using G8 PET/CT scanner (Sofie Biosciences). Per above, quantification was performed by drawing 3D regions of interest (ROI) using the AMIDE software.

HK301 = experiment: GI50 assay (Cell Titer Glo proliferation, 3 days); type: cell-based, human; conditions: Homo sapiens, 72 h, read-out: HK301 GI50 (nM)
[7] = Protein binding (fraction unbound in blood and brain)
[8] = Idasanutlin brain and plasma concentrations by mass spectrometry; type: in vivo; conditions: male, CD-1, mouse, mice with an intact blood-brain-barrier, 50 mg/kg oral gavage
Method: Male CD-1 mice (6-8 weeks old) were treated with 50 mg/kg Idasanutlin in duplicate through oral gavage. At 0.5, 1, 2, 4, 6, 8, 12, and 24 hr after administration, mice were sacrificed, blood was harvested by retro-orbital bleeding, and brain tissue was collected. Whole blood from mice was centrifuged to isolate plasma. Idasanutlin was isolated by liquid-liquid extraction from plasma: 50 μL plasma was added to 2 μL internal standard and 100 μL acetonitrile. Mouse brain tissue was washed with 2 mL cold PBS and homogenized using a tissue homogenizer with fresh 2 mL cold PBS. Idasanutlin was then isolated and reconstituted in a similar manner by liquid-liquid extraction: 100 μL brain homogenate was added to 2 μL internal standard and 200 μL acetonitrile. After vortex mixing, the samples was centrifuged. The supernatant was removed and evaporated by a rotary evaporator and reconstituted in 100 μL 50:50 water: acetonitrile.
Chromatographic separations were performed on a 100×2.1 mm Phenomenex Kinetex C18 column (Kinetex) using the 1290 Infinity LC system (Agilent). The mobile phase was composed of solvent A: 0.1% formic acid in Milli-Q water, and B: 0.1% formic acid in acetonitrile. […] Analyte signal was normalized to the internal standard and concentrations were determined by comparison to the calibration curve (0.5, 5, 50, 250, 500, 2000 nM). […]

p53 = experiment: Immunohistochemistry of p53 in orthotopic tumor-bearing mice; type: in vivo; conditions: 50 mg/kg, 36 hours
Method: Immunohistochemistry was performed on 4 μm sections that were cut from FFPE (formalin-fixed, paraffin-embedded) blocks. Sections were then deparaffinised with xylene and rehydrated through graded ethanol. […] Tissue sections were then treated with 3% hydrogen peroxide (LOT 161509; Fisher Chemical) and with Background Sniper (Biocare Medical, Concord, Calif., USA) to reduce nonspecific background staining. Primary antibody for p53 (Cell Signaling, 2527) was applied in a 1:150 dilution for 80 min followed by detection with the MACH 3 Rabbit HRP-Polymer Detection kit (Biocare Medical). Visualization was achieved using VECTOR NovaRED (SK-4800; Vector Laboratories, Inc.) as chromogen. Lastly, sections were counterstained with Tacha's Automated Hematoxylin (Biocare Medical).

[9] = higher dose: Erlotinib 1500 (weekly), Gefitinib 750-1000

SMILES	response rates against gliomas (gliomas) [%]	apoptosis (annexin V staining) ([1]; metabolic responders) [%]	apoptosis (annexin V staining) ([1]; non-responders) [%]	expression of pro-apoptotic BH3-only proteins BIM and PUMA [2]	Kpuu (Avg) ([3]; Table 4, unbound partition coefficient of the brain and plasma, at equilibrium)	Kpuu (Avg) ([3]; Table 5, unbound ratios of drugs in brain to plasma, non-tumor bearing mice)	radio-labeled glucose uptake (18F-FDG) [4]	CSF ([5]; Daily Dose: Afatinib 50, Alectinib 1200, Crizotinib 500, Erlotinib 150, Gefitinib 250, Lapatinib 1250) [ng/mL]	Plasma ([5]; Daily Dose: Afatinib 50, Crizotinib 500, Erlotinib 150, Gefitinib 250, Lapatinib 1250) [ng/mL]	CSF [5, 9] [ng/mL]	Plasma [5, 9] [ng/mL]	18F-FDG uptake (PET) ([6]; GBM39 orthotopic xenografts, erlotinib 75 mg/kg, 15 hours post administration)	18F-FDG uptake (PET) ([6]; HK393 orthotopic xenografts (non-metabolic responder), acute EGFRi)	GI50 (HK301) [nM]	Bound (blood) ([7]; blood) [%]	fraction unbound ([7]; blood, Fu (blood))	Bound (brain) ([7]; brain) [%]	fraction unbound ([7]; brain, Fu (brain))	Kp [8]	p53 stabilization in tumor (p53)
C#Cc1cccc(Nc2ncnc3cc(OCCOC)c(OCCOC)cc23)c1 [Erlotinib, erlotinib]	≤ 25	~17	~3	promoted the expression	0.0513	0.051	significantly attenuated	28.7 ± 16.8	1140 ± 937	51.1	4445.9	rapidly reduced	no changes	642	95.12	0.0488	97.07	0.0293		
COc1cc(C(=O)O)ccc1NC(=O)[C@@H]1N[C@@H](CC(C)(C)C)[C@](C#N)(c2ccc(Cl)cc2F)[C@H]1c1cccc(Cl)c1F [Idasanutlin]																			0.35	stabilizes p53
